Source: patent US11173145B2, “Compounds useful as inhibitors of indoleamine 2,3-dioxygenase and/or tryptophan dioxygenase” (Board of Regents, The University of Texas System, priority 2017, dated 2021)
pIC50: −log10 of the molar value.

Target: T1, IDO1 (Homo sapiens, UniProt P14902)
T1 construct: endogenous in cells; host or cells: HeLa cells (ATCC), IFNgamma-induced
Experiment: IDO1 cell-based assay (HeLa cells, IFNgamma-induced, N-formylkynurenine/L-tryptophan by RFMS)
Conditions: 10 ng/mL IFNgamma, 24 hours
In short: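 N-formylkynurenine and tryptophan peak areas in media measured by RFMS (C18, isocratic, d-Trp standard), giving IC50 values by regression. Source: HeLa cells incubated 24 h with IFNgamma (10 ng/mL) plus test compound at 0.5% DMSO; parallel CellTiter-Glo viability read.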

T1 sequence (P14902 whole entry): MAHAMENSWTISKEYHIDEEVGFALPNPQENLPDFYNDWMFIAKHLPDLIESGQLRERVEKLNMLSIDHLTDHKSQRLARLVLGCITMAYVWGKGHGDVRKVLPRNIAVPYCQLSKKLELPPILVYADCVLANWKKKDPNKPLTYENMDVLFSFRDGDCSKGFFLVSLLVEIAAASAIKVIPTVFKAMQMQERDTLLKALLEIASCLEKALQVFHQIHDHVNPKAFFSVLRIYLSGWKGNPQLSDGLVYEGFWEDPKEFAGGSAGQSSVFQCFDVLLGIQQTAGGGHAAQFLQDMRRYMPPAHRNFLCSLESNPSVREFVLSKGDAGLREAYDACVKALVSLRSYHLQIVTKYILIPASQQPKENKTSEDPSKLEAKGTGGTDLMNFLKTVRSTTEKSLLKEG

SMILES: Cc1cccc(C(=O)NC[C@@H]2[C@H]3C[C@H](n4cnc5cc(F)c(F)cc54)C[C@@H]23)c1 [Compound 323, N-(((1R,3s,5S,6r)-3-(5,6-difluoro-1H-benzo[d]imidazol-1-yl)bicyclo[3.1.0]hexan-6-yl)methyl)-3-methylbenzamide]
- pIC50: 5.70 to 6.70

SMILES: CC[C@@H](NC(=O)c1ccc(Cl)cc1)[C@H]1[C@@H]2C[C@@H](n3cccn3)C[C@@H]21 [Compound 324, N-((R)-1-((1R,3S,5S,6r)-3-(1H-pyrazol-1-yl)bicyclo[3.1.0]hexan-6-yl)propyl)-4-chlorobenzamide]
- pIC50: > 6.70

SMILES: CC[C@@H](NC(=O)c1ccc(Cl)cc1)[C@H]1[C@@H]2C[C@@H](n3cc(C#N)cn3)C[C@@H]21 [Compound 325, 4-chloro-N-((R)-1-((1R,3S,5S,6r)-3-(4-cyano-1H-pyrazol-1-yl)bicyclo[3.1.0]hexan-6-yl)propyl)benzamide]
- pIC50: > 6.70

SMILES: CC[C@@H](NC(=O)c1ccc(Cl)cc1)[C@H]1[C@@H]2C[C@@H](n3cc(C(=O)OC)cn3)C[C@@H]21 [Compound 326, methyl 1-((1R,3S,5S,6r)-6-((R)-1-(4-chlorobenzamido)propyl)bicyclo[3.1.0]hexan-3-yl)-1H-pyrazole-4-carboxylate]
- pIC50: > 6.70

SMILES: CC[C@@H](NC(=O)c1ccc(Cl)cc1)[C@H]1[C@@H]2C[C@@H](NC(=O)c3ncccc3F)C[C@@H]21 [Compound 327, N-((1R,3S,5S,6r)-6-((R)-1-(4-chlorobenzamido)propyl)bicyclo[3.1.0]hexan-3-yl)-3-fluoropicolinamide]
- pIC50: > 6.70

SMILES: CC[C@@H](NC(=O)c1ccc(Cl)cc1)[C@H]1[C@@H]2C[C@@H](n3cc(C(=O)O)cn3)C[C@@H]21 [Compound 328, 1-((1R,3S,5S,6r)-6-((R)-1-(4-chlorobenzamido)propyl)bicyclo[3.1.0]hexan-3-yl)-1H-pyrazole-4-carboxylic acid]
- pIC50: 5.70 to 6.70

SMILES: CC[C@@H](NC(=O)c1ccc(Cl)cc1)[C@H]1[C@@H]2C[C@@H](n3cc(Br)cn3)C[C@@H]21 [Compound 329, N-((R)-1-((1R,3S,5S,6r)-3-(4-bromo-1H-pyrazol-1-yl)bicyclo[3.1.0]hexan-6-yl)propyl)-4-chlorobenzamide]
- pIC50: > 6.70

SMILES: CC[C@@H](NC(=O)c1ccc(Cl)cc1)[C@H]1[C@@H]2C[C@@H](n3cc(C)cn3)C[C@@H]21 [Compound 330, 4-chloro-N-((R)-1-((1R,3S,5S,6r)-3-(4-methyl-1H-pyrazol-1-yl)bicyclo[3.1.0]hexan-6-yl)propyl)benzamide]
- pIC50: > 6.70

SMILES: CC[C@@H](NC(=O)c1ccc(Cl)cc1)[C@H]1[C@@H]2C[C@@H](Nc3ccccc3C#N)C[C@@H]21 [Compound 331, 4-chloro-N—((R)-1-((1R,3S,5S, 6r)-3-((2-cyanophenyl)amino)bicyclo[3.1.0]hexan-6-yl)propyl)benzamide]
- pIC50: > 6.70

SMILES: CC[C@@H](NC(=O)c1ccc(Cl)cc1)[C@H]1[C@@H]2C[C@@H](n3cc(C(F)(F)F)cn3)C[C@@H]21 [Compound 332, 4-chloro-N-((R)-1-((1R,3S,5S,6r)-3-(4-(trifluoromethyl)-1H-pyrazol-1-yl)bicyclo[3.1.0]hexan-6-yl)propyl)benzamide]
- pIC50: > 6.70

SMILES: CC[C@@H](NC(=O)c1ccc(Cl)cc1)[C@H]1[C@@H]2C[C@@H](NC(=O)c3ccccn3)C[C@@H]21 [Compound 333, N-((1R,3S,5S,6r)-6-((R)-1-(4-chlorobenzamido)propyl)bicyclo[3.1.0]hexan-3-yl)picolinamide]
- pIC50: > 6.70

SMILES: CC[C@@H](NC(=O)c1ccc(Cl)cc1)[C@H]1[C@@H]2C[C@@H](NC(=O)c3cccnc3)C[C@@H]21 [Compound 335, N-((1R,3S,5S,6r)-6-((R)-1-(4-chlorobenzamido)propyl)bicyclo[3.1.0]hexan-3-yl)nicotinamide]
- pIC50: > 6.70

SMILES: CC[C@@H](NC(=O)c1ccc(Cl)cc1)[C@H]1[C@@H]2C[C@@H](Nc3ncnc4ccc(F)cc34)C[C@@H]21 [Compound 336, 4-chloro-N-((R)-1-((1R,3S,5S,6r)-3-((6-fluoroquinazolin-4-yl)amino)bicyclo[3.1.0]hexan-6-yl)propyl)benzamide]
- pIC50: > 6.70

SMILES: C#Cc1ccc2ncnc(N[C@@H]3C[C@@H]4[C@H](C3)[C@H]4[C@@H](CC)NC(=O)c3ccc(Cl)cc3)c2c1 [Compound 337, 4-chloro-N-((R)-1-((1R,3S,5S,6r)-3-((6-ethynylquinazolin-4-yl)amino)bicyclo[3.1.0]hexan-6-yl)propyl)benzamide]
- pIC50: > 6.70

SMILES: CC[C@@H](NC(=O)c1ccc(Cl)cc1)[C@H]1[C@@H]2C[C@@H](Nc3ncnc4ccc(C)cc34)C[C@@H]21 [Compound 338, 4-chloro-N-((R)-1-((1R,3S,5S,6r)-3-((6-methylquinazolin-4-yl)amino)bicyclo[3.1.0]hexan-6-yl)propyl)benzamide]
- pIC50: > 6.70

SMILES: CC(C(=O)Nc1ccc(Cl)cc1)[C@H]1[C@@H]2C[C@@H](Oc3ncnc4ccc(F)cc34)C[C@@H]21 (stereo partly drawn) [Compound 339, N-(4-chlorophenyl)-2-((1R,3s,5S,6r)-3-((6-fluoroquinazolin-4-yl)oxy)bicyclo[3.1.0]hexan-6-yl)propanamide]
- pIC50: > 6.70

SMILES: CC(C(=O)Nc1ccc(Cl)cc1)[C@H]1[C@@H]2C[C@@H](Oc3cnnc4ccc(F)cc34)C[C@@H]21 (stereo partly drawn) [Compound 340, N-(4-chlorophenyl)-2-((1R,3s,5S,6r)-3-((6-fluorocinnolin-4-yl)oxy)bicyclo[3.1.0]hexan-6-yl)propanamide]
- pIC50: > 6.70

SMILES: C[C@@H](NC(=O)c1ccc(Cl)cc1)[C@H]1[C@@H]2C[C@@H](Oc3cc(Cl)ccc3C(=O)O)C[C@@H]21 [Compound 341, 4-chloro-2-(((1R,3S,5S,6r)-6-((R)-1-(4-chlorobenzamido)ethyl)bicyclo[3.1.0]hexan-3-yl)oxy)benzoic acid]
- pIC50: 5.30 to 5.70

SMILES: CC[C@@H](NC(=O)c1ccc(Cl)cc1)[C@H]1[C@@H]2C[C@@H](n3nccc3C3CC3)C[C@@H]21 [Compound 342, 4-chloro-N-((R)-1-((1R,3S,5S,6r)-3-(5-cyclopropyl-1H-pyrazol-1-yl)bicyclo[3.1.0]hexan-6-yl)propyl)benzamide]
- pIC50: > 6.70

SMILES: CC[C@@H](NC(=O)c1ccc(Cl)cc1)[C@H]1[C@@H]2C[C@@H](n3ccc(C4CC4)n3)C[C@@H]21 [Compound 343, 4-chloro-N-((R)-1-((1R,3S,5S,6r)-3-(3-cyclopropyl-1H-pyrazol-1-yl)bicyclo[3.1.0]hexan-6-yl)propyl)benzamide]
- pIC50: > 6.70

SMILES: CC[C@@H](NC(=O)Nc1ccc(Cl)cc1)[C@H]1[C@@H]2C[C@@H](n3cnc4cc(F)c(F)cc43)C[C@@H]21 [Compound 344, 1-(4-chlorophenyl)-3-((R)-1-((1R,3S,5S,6r)-3-(5,6-difluoro-1H-benzo[d]imidazol-1-yl)bicyclo[3.1.0]hexan-6-yl)propyl)urea]
- pIC50: > 6.70

SMILES: CC(C(=O)Nc1ccc(Cl)c(F)c1)[C@H]1[C@@H]2C[C@@H](n3cnc4cc(F)c(F)cc43)C[C@@H]21 (stereo partly drawn) [Compound 345, N-(4-chloro-3-fluorophenyl)-2-((1R,3s,5S,6r)-3-(5,6-difluoro-1H-benzo[d]imidazol-1-yl)bicyclo[3.1.0]hexan-6-yl)propanamide]
- pIC50: > 6.70
